Assay results published in patent US10328056B2, “Priming of pancreatic tumor cells and cancer stem cells to TRAIL-induced apoptosis” (Alliance of Cardiovascular Researchers, priority 2014, dated 2019).

Tests used:
MiaPaCa2 tumors = experiment: Orthotopic MiaPaCa2 tumor model; format: in vivo, mice; settings: for #tumors at 6 wks: JNKi 1 mg/kg oral 5x/week, TRAIL 1 mg/kg i.p. 2x/week, gemcitabine 80 mg/kg 2x/week; for % tumor presence at 6 wks / Kidney mets / Liver mets / Peritoneal mets / Spleen mets: same regimens; for Kidney mets / Liver mets / Peritoneal mets / Spleen mets: at 6 wks
Procedure: Age-matched male swiss nu/nu mice (6-8 weeks old) were injected orthotopically with pancreatic tumor cells. All procedures were performed in accordance with the guidelines of the Institutional Animal Care and Use Committee at The University of Texas MD Anderson Cancer Center (ACDF Protocol #12-12-12631). Animals were anesthetized with isoflurane anesthesia (1%-3% via inhalation), and an incision was made in the left abdominal flank. The spleen was located and extracted, and 1×10^6 pancreatic cells in 50 μL of PBS were injected into the underlying tail of the pancreas. The abdominal wall was closed with sterile absorbable sutures, and wound clips were applied to the skin. Animals were monitored daily and after two weeks of untreated tumor growth randomly assigned to different treatment groups: control (no treatment), JNKi (1 mg/kg) was administered by oral gavage five times per week; gemcitabine (80 mg/kg) or TRAIL (1 mg/kg) was injected intraperitoneally with a 27-G needle two times per week or JNKi and TRAIL together at the dosages indicated above. Weight, tumor growth, and health status were clinically followed for 4 weeks. At day 42, animals were euthanized, and blood and tissues were collected for postmortem analysis.

[1] = test system: TRAIL-resistant L3.6pl cells (L3.6plTR); experiment: Cell viability / cell death in TRAIL-resistant cells; format: cell-based
Procedure: (§1) Cells were seeded in a 96-well plate at a density of 4000 to 5000 cells per well (70%-80% confluence) in triplicate. Non-adherent cells were washed with PBS, and different substrate dilutions were added. After 24 hours, 3-(4,5-dimethylthiazol-2-yl)-2,5-diphenyltetrazolium bromide (MTT) assay (Roche, Mannheim, Germany) was performed according to the manufacturer's instructions. Results were measured at 570 nm and background at 650 nm on a microplate reader (Molecular Devices).

[2] = test system: parental pancreatic cancer cells; experiment: MTT cell viability assay, single agents; format: cell-based; settings: JNKi 0.5 μM alone; rhTRAIL 10 ng/mL alone
Procedure: as §1

L3.6pl parental cells = experiment: Acridine orange/ethidium bromide staining; format: cell-based; settings: 50 ng/mL, 24 hours
Excerpt: (§2) According to a protocol adapted from Todaro et al. (supra), attached cells or spheres were washed with PBS, stained with acridine orange/ethidium bromide, and visualized immediately with fluorescent microscopy.

L3.6pl spheres = experiment: Acridine orange/ethidium bromide staining; format: cell-based; settings: 50 ng/mL, 24 hours
Excerpt: as §2

[3] = test system: CSC-enriched pancreatic cancer spheres; experiment: MTT viability assay, spheres versus parental cells; format: cell-based; settings: 25 ng/mL and 50 ng/mL
Procedure: as §1

DR4 and DR5 = experiment: qRT-PCR of TRAIL death receptors; format: cell-based; settings: vs control samples
Procedure: (§3) For total RNA extraction, cells were homogenized with TRIzol (Invitrogen). Phase separation was performed by the addition of chloroform and subsequent centrifugation steps. Aqueous phase of samples was collected, and RNA was precipitated by isopropyl alcohol. After washing, RNA was redissolved in DEPC-treated water, and RNA quality and quantity were measured with a Nanodrop ND-1000 Spectrophotometer (Thermo Scientific). For cDNA synthesis, the iScript Reverse Transcription Supermix (Bio-Rad) was used according to the manufacturer's protocol, and the reaction mix was incubated in a thermal cycler (Bio-Rad MyIQ Single-Color RT-PCR Detection System iCycler) with the following protocol: priming (5 minutes at 25° C.), reverse transcription (30 minutes at 42° C.), and reverse transcription inactivation (5 minutes at 85° C.). qRT-PCR was performed using iQ SYBR Green Supermix (Bio-Rad) according to the following protocol: initial denaturation and enzyme activation (1 cycle at 95° C. for 3 minutes), denaturing (40 cycles at 95° C. for 15 seconds) with annealing and extension (40 cycles at 55° C. for 30 seconds), and melting curve (1 cycle at 55° C.-95° C. in […] for 30 seconds). The Ct (cycle threshold) value was measured in absolute quantification (of cycles of amplification) and compared to β-actin, which served as a housekeeping gene.

DcR1 = experiment: qRT-PCR of TRAIL decoy receptor; format: cell-based; settings: vs control samples
Procedure: as §3

p-JNK = experiment: PathScan p-SAPK/JNK sandwich ELISA; format: cell-based; settings: L3.6plTR cells vs untreated control
Procedure: Protein lysates were obtained from adherent cells or spheres after 1-hour of incubation with JNKi and/or TRAIL. Protein quantification was performed, and PathScan Sandwich ELISA Antibody Pair (Cell Signaling Technologies) was performed according to the manufacturer's instructions.

[4] = test system: adipose tissue-derived stem cells (ASCs); experiment: Differentiation assay of ASCs; format: cell-based, human
Procedure: Adipose tissue-derived stem cells were seeded in the following concentrations: adipogenic differentiation, 1×10^4 cells/cm^2; chondrogenic differentiation, 1.6×10^7 cells/cm2; and osteogenic differentiation, 5×10^3 cells/cm^2. After a 2-hour incubation with 20% FBS-containing medium, cells were washed, and the respective differentiation media were added (Invitrogen StemPro differentiation kits). Differentiation media were changed twice a week. After 14 to 21 days, cells were fixed with 4% formaldehyde for 30 minutes and stained with Oil Red O for lipid vesicles (adipogenic differentiation), Alcian Blue for proteoglycans (chondrogenic differentiation), and Alizarin Red S for calcium deposits (osteogenic differentiation) as reported previously. Bai X, Alt E. “Myocardial regeneration potential of adipose tissue-derived stem cells” Biochemical and Biophysical Research Communications. 401 (2010) 321-6.

IL-8 secretion = experiment: Human CXCL8/IL-8 ELISA of culture supernatant; format: cell-based
Procedure: Cell culture supernatant was obtained after 24-hour treatments in triplicate. A human CXCL8/IL-8 Quantikine ELISA kit (R&D Systems) was used to measure human IL-8 according to the manufacturer's protocol. An IL-8 standard curve was performed to determine concentrations (in pg of cytokine per μL).

L3.6pl cells = experiment: MTT cell viability assay; format: cell-based; settings: compared to TRAIL alone
Procedure: as §1

IL-8, CXCR1, DcR1, c-Jun = experiment: qRT-PCR of IL-8 axis genes; format: cell-based; settings: IL-8 treatment
Procedure: as §3

MTT cell viability assay = format: cell-based; settings: human, low-dose 0.5 μM or 1.0 μM
Procedure: as §1

[5] = test system: CSC-enriched pancreatic cancer spheres; experiment: Sphere forming assay; format: cell-based; settings: high-dose treatment group (control 40%)
Procedure: Sphere-forming medium consisted of MEMα supplemented with L-glutamine, putrescine, insulin (all from Sigma-Aldrich), […] (20 ng/mL), basic fibroblast growth factor (10 ng/mL), and B-27 supplement (Gibco). For first generation, attached cells were trypsinized, washed twice with PBS, and seeded in sphere-forming medium as single cell suspensions with clonal density (5,000-10,000 cells/mL) on ultra-low-attachment plates (Corning). After 7 to 10 days, spheres were harvested by gravitation in a tube, trypsinized, washed twice with PBS, and reseeded as described above for the next higher generation. To quantify sphere-forming ability, cells were prepared as described in the preceding paragraph and seeded in 96-well ultra-low-attachment plates at 500 to 1000 cells per well. Medium was supplemented with 1% methylcellulose to prevent cell-cell attachments. Medium was added or renewed every 3 days, and spheres were quantified at day 10 to 12.

[6] = test system: adipose tissue-derived stem cells (ASCs); experiment: MTT proliferation assay of adipose tissue-derived stem cells; format: cell-based, human; settings: 10.0 μM or 20.0 μM
Procedure: as §1
For measurement of cell proliferation, cells were seeded into 24-well plates. After 24 hours, cells were washed with PBS, and medium with different dilutions of JNKi was added. Viable cells were then counted daily with a standard trypan blue stain protocol.

Molecule	#tumors at 6 wks (MiaPaCa2 tumors)	% tumor presence at 6 wks (MiaPaCa2 tumors)	Kidney mets (MiaPaCa2 tumors)	Liver mets (MiaPaCa2 tumors)	Peritoneal mets (MiaPaCa2 tumors)	Spleen mets (MiaPaCa2 tumors)	differentiation into osteoblasts, chondrocytes, adipocytes [4]	also measured
Nc1ccn([C@@H]2O[C@H](CO)[C@@H](O)C2(F)F)c(=O)n1 [GEM, Gemcitabine]	5/5	100%	0	1	1	3	–	–
TRAIL: recombinant human TNF-related apoptosis-inducing ligand from R&D Systems	10/10	100%	0	2	1	0	functionally unimpaired	cell death ([1]; TRAIL doses up to 100 ng/mL): detectable cell death only in small numbers of cells; cell viability [2]: only modest effects; apoptosis (L3.6pl parental cells): robust apoptosis; viability of spheres (L3.6pl spheres): almost entirely viable; resistance of spheres to TRAIL-induced cell death vs parental cells [3]: significantly more resistant; expression of DR4 and DR5 (DR4 and DR5): reduced the presence of the apoptosis receptors DR4 and DR5; expression of DcR1 (DcR1): increased the expression of the decoy receptor DcR1; p-JNK levels (p-JNK): increased p-JNK levels; TRAIL level at peak IL-8 secretion (IL-8 secretion; Panc1 cells, 24 hours): 50 ng/mL; IL-8 secretion (IL-8 secretion; TRAIL with or without JNKi): upregulates IL-8 secretion; IL-8 production (IL-8 secretion; increasing doses of TRAIL, 24 hours): increased dose-dependently
IL-8: interleukin-8 added to cells in combination with TRAIL	–	–	–	–	–	–	–	cell viability / apoptosis in combination with TRAIL (L3.6pl cells): neutralized the apoptosis-inducing power of TRAIL; cell viability / apoptosis in combination with TRAIL ([1]; compared to TRAIL alone): neutralized the apoptosis-inducing power of TRAIL; DcR1 expression (IL-8, CXCR1, DcR1, c-Jun): upregulation of the decoy receptor DcR1; IL-8 and CXCR1 expression (IL-8, CXCR1, DcR1, c-Jun): autostimulated IL-8 and CXCR1 expression
Oc1c2ccccc2c2c3c(cccc13)N=N2 [JNKi, SP600125]	4/4	100%	0	1	0	1	functionally unimpaired	viability at 24 h (MTT cell viability assay; L3.6pl cells, 24 hours): 80%; viability at 24 h (MTT cell viability assay; MiaPaCa2 cells): 80%; spheres bigger than 150 μm in diameter [5]: 0%; cell proliferative capacity, lower compared to untreated ASCs [6]: 20%
